Measurements from patent EP4566597A1, “STATINS USEFUL IN THE TREATMENT OF SPLACHNIC VASCULAR DYSFUNCTIONS” (Hospital Clínic de Barcelona, priority 2023, dated 2025).

What was measured:
PVECs = experiment: qPCR of EndMT markers in PVECs treated in vitro with Simvastatin; assay type: cell-based, human; conditions: 5 µM Simvastatin sodium salt, 24 h
Procedure: For portal vein endothelia cell (PVEC) isolation, excess surrounding fat tissue was meticulously removed from the vein using sterile scissors, and any residual blood was washed away with DPBS. Subsequently, the tubular vein was opened to expose the inner part of the vein facing upward. Trypsin EDTA 0,05% (Gibco, #25300054) was then added on the upper surface and incubated for 5 minutes at 37°C. EGM-2 medium was then added abundantly over the tissue and a cell scrapper (TPP-Reactiva, #99002) was used to carefully scrap the surface of the inner wall several times, in order to detach the endothelial cells from the vein wall. The EGM-2 medium with cells in suspension was then centrifuged at 300 g for 5 minutes and pellet resuspended in 2 ml of fresh EGM-2. Cells were then seeded in a well from a 6-well plate pre-coated with human plasma fibronectin at a concentration of 1 µg/cm^2 (Sigma, #F0895), and fresh media changed every other day until confluence. On average, confluence was reached 10 days after isolation.
In order to isolate PVECs from other cell types that were also scrapped during the initial tissue processing, cells were detached, stained with anti-CD31-FITC (BD Bioscience, #555445) and CD144 -BV786 (BD Bioscience, #565672) antibodies and FACS sorted in a FACS Aria II cell sorter (BD Biosciences) according to manufacturer's instructions. PVECs were selected as CD31^+ CD144^+ cells and seeded back to either a 6-well plate, T25 or T75 flasks, depending on the cell amount obtained. Once ECs reached confluency, a third of the cells were collected in RLT buffer (Qiagen) for subsequent RNA isolation (passage 1), a third was used for flow cytometry purity analysis and the final one third was passaged into a new 6-well plate. From this moment onwards, […] portal vein endothelial cells (PVECs) were expanded at a split ratio of 1:5 until senescence. At every passage, a fraction of the cells was cryopreserved for future experiments, while the rest was used for flow cytometry purity check, RLT collection and tube assays. Endothelial phenotype of PVECs was routinely monitored by cell morphology, flow cytometry, immunofluorescence and tube formation capacity.
(§1) PVECs were seeded in 6-well plates in triplicates (for RNA collection) and in 60mm dishes (for protein collection) at a concentration of 6x10^4 cells/ml and grow for 24 h to obtain 70% confluency. PVECs from CT (n=3), CH (n=7) and CH-PVT (n=6) were then treated in vitro with 5 µM Simvastatin sodium salt (Sigma, #567022) for another 24 h and collected in either RLT or RIPA buffer for further analysis by means of quantitative real-time polymerase chain reaction (qPCR) or Western blotting, respectively. Its effect on mesenchymal markers and EndMT promoters, including TFs and all the molecules involved in EndMT initiation or progression previously described, was studied.
Total RNA was isolated by RNeasy Micro and Mini kit (Qiagen) as stated above. First-strand cDNA was synthesized using the High Capacity cDNA Reverse Transcription Kit (Applied, Thermo Fisher, #4368814) according to the manufacturer's instructions. Quantitative real-time PCR (qPCR) was performed using PowerUp™ sybr® Green Master Mix (Applied Biosystems, #A25776) with technical duplicates using an AB1 Prism® 7900 HT Cycler (Applied Biosystems). PCR cycle parameters were as follows: 95 °C for 10' followed by 40 cycles at 95 °C for 15" and 60 °C for 1'. Results were obtained with the Sequence Detection System 3.2 software (Applied Biosystems) and further analyzed by the 2-ΔΔCt method. GAPDH was used as a loading control. Results are shown as fold-change.

phosphor-SMAD2 = experiment: Western blot of PVECs treated in vitro with simvastatin; assay type: cell-based, human; conditions: FIG. 10
Procedure: as §1
Proteins were extracted with RIPA buffer complemented with Halt Protease & Phosphatase inhibitors (ThermoFisher) and total protein estimated using Bradford's Reagent (Bio-Rad) following manufacturer's instructions. […] Extracted proteins were analyzed by western blot. […] Images were acquired with a LAS-4000 apparatus (Fujifilm, TDI, Alcobendas, Spain) and protein expression was determined by densitometric analysis using the Image Studio Lite software (LI-COR). Results are expressed as relative densitometric values normalized to endogenous control β-actin. […]

[1] = PVECs from CT, CH and CH-PVT, qPCR, FIG. 9
[2] = PVEC from cirrhotic patients with or without PVT, qPCR

In the case of CCC(C)(C)C(=O)O[C@H]1C[C@@H](C)C=C2C=C[C@H](C)[C@H](CC[C@@H]3C[C@@H](O)CC(=O)O3)[C@H]21 [Simvastatin, [(1S,3R,7S,8S,8aR)-8-[2-[(2R,4R)-4-hydroxy-6-oxooxan-2-yl]ethyl]-3,7-dimethyl-1,2,3,7,8,8a-hexahydronaphthalen-1-yl] 2,2-dimethylbutanoate], the “endothelial markers expression (Cd31)” value (PVECs; [1]) is reported as “increasing”, the “endothelial markers expression (NOs3)” value (PVECs; [1]) is reported as “increasing” and the “expression of mesenchymal markers (AIFM2)” value (PVECs; [2]) is reported as “reduced”. The “expression of mesenchymal markers (CDH2)” value (PVECs; [2]) was “reduced”, the “expression of the adhesion molecule VCAM1” value (PVECs; [2]) was “reduced” and the “EndMT occurring in PVEC” value (PVECs; overall finding, FIG. 9) was “can ameliorate”. The “GTPase (Rac2) expression” value (PVECs; qPCR) was “decreasing”, the Serpine1 expression (PVECs; qPCR) was “decreasing” and the “expression of transcription factor Snail1” value (PVECs; qPCR) was “reduced”. The phosphor-SMAD2 protein levels (phosphor-SMAD2) was “capable of reducing”.
